Literature values as cited in patent publication US20230113836A1, “NEW CONJUGATES OF PEPTIDES AND POLYSACCHARIDE” (ENLITISA (SHANGHAI) PHARMACEUTICAL CO., LTD., priority 2019, published 2023).

System: Drosophila model organism
Conditions: Foureman et al., 1994

For `C(CCOCC1CO1)COCC1CO1` (stereo not shown) [BDDE, 1,4-butanediol diglycidyl ether], the Mutagenicity is given as “mutagenic”.
